# In patent US9867795B2, “Nitrated lipids and methods of making and using thereof” (The UAB Research Foundation, priority 2004, dated 2018):
# Experiments:
# [1] = molecular target: T1, progesterone receptor (PR) (Homo sapiens, UniProt P06401); experiment: CV-1 Gal4 ligand binding domain luciferase reporter assay; assay type: cell-based; conditions: LNO2 1 μM; CV-1 cells
# T1 construct: expressed in transfected cells; host or cells: CV-1 cells
# T1 sequence (P06401 679-913 limits assumed): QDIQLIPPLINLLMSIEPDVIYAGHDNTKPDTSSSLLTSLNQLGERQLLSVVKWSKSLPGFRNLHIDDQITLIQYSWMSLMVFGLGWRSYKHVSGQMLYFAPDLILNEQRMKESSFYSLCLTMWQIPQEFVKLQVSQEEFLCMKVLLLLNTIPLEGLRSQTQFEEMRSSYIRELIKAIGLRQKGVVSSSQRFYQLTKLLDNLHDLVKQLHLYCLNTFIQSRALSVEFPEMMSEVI
# Method: (§1) Cell Transient Transfection Assay. CV-1 cells from ATCC (Manassas, Va.) were grown to ˜85% confluence in DMEM/F12 supplemented with 10% FBS, 1% penicillin-streptomycin. Then, cells were transiently co-transfected with a plasmid containing the luciferase gene under regulation by four Gal4 DNA binding elements (UASG×4 TK-Luciferase, a gift from Dr. Ronald M. Evans), in concert with plasmids containing the ligand binding domain for the different nuclear receptors fused to the Gal4 DNA binding domain. For assessing full-length PPAR receptors, CV-1 cells were transiently co-transfected with a plasmid containing the luciferase gene under the control of three tandem PPAR response elements (PPRE) (PPRE×3 TK-Luciferase) and hPPARγ, hPPARα or hPPARδ expression plasmids, respectively. In all cases, fluorescence protein (GFP) expression plasmid was co-transfected as the control for the transfection efficiency. Twenty-four hours after the transfection, cells were cultured for another 24 hours in Optium-MEM (Invitrogen, Carlsbad, Calif.). Then, cells were treated with different compounds as indicated in figures for 24 hours in Optium-MEM. Reporter luciferase assay kits from Promega (Madison, Wis.) were used to measure the luciferase activity according to the manufacturer's instructions with a luminometer (Victor II, Perkin-Elmer). Luciferase activity was normalized by GFP units. Each condition was performed at least in triplicates in each experiment.
# [2] = molecular target: T2, retinoic X receptor α (RXRα) (Homo sapiens, UniProt P19793); experiment: as above; assay type: cell-based; conditions: LNO2 1 μM; CV-1 cells
# T2 construct: expressed in transfected cells; host or cells: CV-1 cells
# T2 sequence (P19793 227-458 limits assumed): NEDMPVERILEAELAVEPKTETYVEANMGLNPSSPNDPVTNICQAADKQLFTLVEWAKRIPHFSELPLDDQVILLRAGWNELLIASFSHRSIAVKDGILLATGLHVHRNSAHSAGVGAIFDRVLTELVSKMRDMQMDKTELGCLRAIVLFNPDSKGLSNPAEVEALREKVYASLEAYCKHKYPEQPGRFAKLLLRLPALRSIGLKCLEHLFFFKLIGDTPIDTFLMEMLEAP
# Method: as §1
# [3] = molecular target: T3, mineralocorticoid receptor (MR) (Homo sapiens, UniProt P08235); experiment: as above; assay type: cell-based; conditions: LNO2 1 μM; CV-1 cells
# T3 construct: expressed in transfected cells; host or cells: CV-1 cells
# T3 sequence (P08235 726-964 limits assumed): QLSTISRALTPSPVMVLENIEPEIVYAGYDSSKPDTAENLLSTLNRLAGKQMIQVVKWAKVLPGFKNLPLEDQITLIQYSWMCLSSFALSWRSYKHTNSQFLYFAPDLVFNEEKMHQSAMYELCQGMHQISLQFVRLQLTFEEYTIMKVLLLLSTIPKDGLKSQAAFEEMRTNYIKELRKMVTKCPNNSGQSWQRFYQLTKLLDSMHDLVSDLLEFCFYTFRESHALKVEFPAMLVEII
# Method: as §1
# NF-kB pathways = experiment: NF-kB pathway activity (NFkB-response element luciferase reporter, IkB degradation); assay type: cell-based; conditions: reporter in response to TNFa; IkB degradation in response to E. coli LPS
# [4] = •NO release from LNO2 by oxymyoglobin oxidation
# Method: Apparent •NO formation was calculated from extents of oxymyoglobin oxidation in the visible wavelength range (spectrum) and at 580 nm (kinetic mode). Initial oxymyoglobin oxidation was calculated using a UV probe Version 1.10 (ε580 14.4 mM^−1 cm^−1). Decomposition of the NO2 group was followed at 268 nm and the appearance of oxidized products at 320 nm.
# To monitor the concomitant decomposition of the parent LNO2 molecule, its UV spectrum was first analyzed. […] The decrease in absorbance at 268 nm paralleled •NO release, as detected by both EPR and oxymyoglobin oxidation.
# The formation of •NO was followed by EPR (measuring cPTI formation) in the presence of different concentrations of octyl-β-glucopyranoside (OG) and octyl-thio-β-glucopyranoside (OTG). The rate of •NO release was constant and not influenced by these detergents until the critical micellar concentration (CMC) for each was achieved, after which •NO formation was inhibited as the volume of the hydrophobic environment increased (FIG. 24A). Similar results were obtained when measuring •NO formation via conversion of oxymyoglobin to metmyoglobin. Apparent •NO release rates remained constant until OG concentration reached ˜2.8 mg/ml (CMC=2.77 mg/ml (11)). […] The inhibition of the NO2 group loss at 268 nm was paralleled by inhibition of the formation of oxidation products at 320 nm, similarly paralleling the detergent-induced inhibition of •NO release observed by EPR and oxymyoglobin-based detection.
# [5] = pH dependency of •NO formation from LNO2 (EPR, cPTIO reduction); conditions: 80 μM LNO2, buffers with different pHs
# Method: Electron paramagnetic resonance—EPR measurements were performed at room temperature using a Bruker Elexsys E-500 spectrometer equipped with an ER049X microwave bridge and an AquaX liquid sample cell. The following instrument setting were used: modulation frequency, 100 kHz; modulation amplitude, 0.05 G; receiver gain, 60 dB; time constant, 1.28 ms; sweep time, 5.24 s; center field, 3510 G; sweep width, 100 G; power, 20 mW; scan parameter, 16 scans.
# Due to limitations of the •NO-cPTIO reaction for quantitating yields of NO, oxymyoglobin was utilized to measure •NO release rates (24).
# [6] = LNO2 130 μM, oxymyoglobin 20 μM
substance,measurement,setting,value
"10-nitro-9,12-octadecadienoic acid and 12-nitro-9,12-octadecadienoic acid [LNO2]",PR receptor activation,[1],no impact
same,RXRα receptor activation,[2],no impact
same,MR receptor activation,[3],no impact
same,activity of NF-kB pathways,NF-kB pathways,inhibits activity of NF-kB pathways
same,apparent rate constant for •NO release,"[4]; 100 mM phosphate buffer, 100 μM DTPA, pH 7.4, oxymyoglobin to metmyoglobin",9.67e-06 s⁻¹
same,OG concentration up to which apparent •NO release rates remained constant,[4]; [6],~2.8 mg/mL
same,OTG concentration at which inhibition of LNO2-dependent •NO release occurred,[4]; [6],~7 mg/mL
same,pH of maximal •NO release,[5],7.4
